Data: the NIST ThermoML archive (doi:10.1021/je0502849)

Settings: Liquid, Pulse-echo method

CC(C)CC(C)(C)C [2,2,4-trimethylpentane]
speed of sound [m/s]
Settings | 293.15 K | 303.15 K | 313.15 K | 323.15 K | 333.15 K | 343.15 K | 353.15 K | 363.15 K | 373.15 K
100 kPa | 1104.6 | 1061.7 | 1019.1 | 977.9 | 935.8 | 897.3 | 858.2 | 817.2 | 780.4
10000 kPa | 1178.5 | 1139.3 | 1100.9 | 1063.5 | 1026.6 | 992.6 | 958 | 924.3 | 891
20000 kPa | 1244.6 | 1208.6 | 1173 | 1138.8 | 1105.2 | 1071.6 | 1041.7 | 1011.1 | 980.7
30000 kPa | 1304.8 | 1270.2 | 1237 | 1204.7 | 1173 | 1142.7 | 1114.1 | 1085.5 | 1057.5
40000 kPa | 1358.5 | 1326.8 | 1295.2 | 1264.6 | 1234.2 | 1205.7 | 1178.7 | 1151.4 | 1125.2
50000 kPa | 1410.3 | 1378.5 | 1349.3 | 1319 | 1290.2 | 1262.9 | 1236.1 | 1211.3 | 1185.9
60000 kPa | 1458.1 | 1427 | 1397.6 | 1369.8 | 1341.8 | 1315.4 | 1290.4 | 1265.7 | 1242.1
70000 kPa | 1502.5 | 1472.6 | 1443.4 | 1416.6 | 1390 | 1363.5 | 1339.5 | 1316.6 | 1293.1
80000 kPa | 1544.7 | 1515.6 | 1487.6 | 1461.2 | 1434.9 | 1410.8 | 1386.8 | 1364.4 | 1341.5
90000 kPa | 1584.5 | 1556.4 | 1529 | 1503.4 | 1479 | 1453.6 | 1431 | 1408.2 | 1386
100000 kPa | 1622.6 | 1594.5 | 1568.7 | 1543.4 | 1519 | 1495.3 | 1472.5 | 1449.9 | 1428.5
110000 kPa | 1658.9 | 1632.1 | 1605.9 | 1581.4 | 1557.7 | 1534 | 1512.1 | 1490.6 | 1469.2
120000 kPa | 1694 | 1667.5 | 1641.7 | 1617.8 | 1594.1 | 1571.7 | 1549.6 | 1529 | 1508.2
130000 kPa | 1727.5 | 1701.6 | 1676.3 | 1653.1 | 1629.5 | 1607.2 | 1585.9 | 1565.5 | 1545.1
140000 kPa | 1760.1 | 1734.3 | 1709.4 | 1686.4 | 1663.5 | 1641.7 | 1620.5 | 1600.8 | 1580.3
150000 kPa | 1791.1 | 1766.4 | 1741.7 | 1718.6 | 1696.2 | 1675 | 1654.1 | 1634.2 | 1614
